Literature values in patent US20210401707A1, “AZOXYSTROBIN IN A SULFATE FREE PERSONAL CARE COMPOSITION” (The Procter & Gamble Company, priority 2020, published 2021).

## CO/C=C(/C(=O)OC)c1ccccc1Oc1cc(Oc2ccccc2C#N)ncn1 [Azoxystrobin]
  solubility in water: low solubility in water
